Test results reported in patent US6919190B2, “Regulation of carbon assimilation” (priority 1999, dated 2005).

Legend:
[1] = biological target: T1, PEP carboxylase of Corynebacterium glutamicum strain ATCC 13032 (wild-type) (Corynebacterium glutamicum, UniProt P12880); assay: PEP carboxylase activity in crude extract, wild-type strain; format: biochemical; conditions: crude extract of ATCC 13032, relative to Complete = 100%, change in absorbance at 340 nm/min
T1 construct: endogenous in cells; host or cells: Corynebacterium glutamicum ATCC 13032, crude extract
Description: (§1) It is possible for the measurement of the enzyme activity to use a spectrometric method (Yoshinage, T., et al., J. Biochem. 68:747-750 (1970)) and the like. For example, when the enzyme assay is measured in a continuous or kinetic mode while the reaction is occurring, the reaction can be measured spectrophotometrically by following the decrease in the absorbance (usually at 340 nanometers).
(§2) Activity units were measured spectrophotometrically as the change in absorbance (340 nm/min) using crude extracts.

[2] = test system: PEP carboxylase of Corynebacterium glutamicum strain BF100 (lysine-producing); assay: PEP carboxylase activity in crude extract, lysine-producing strain; format: biochemical; conditions: relative to Complete = 100%, change in absorbance at 340 nm/min
Description: as §1, §2

[3] = biological target: T2, PEP carboxylase from a strain of Medicago sativa (Medicago sativa, UniProt Q02735); conditions: Vance et al., Plant Physiol. 75:261-264 (1984); cited from earlier work
T2 sequence (Q02735 1-966): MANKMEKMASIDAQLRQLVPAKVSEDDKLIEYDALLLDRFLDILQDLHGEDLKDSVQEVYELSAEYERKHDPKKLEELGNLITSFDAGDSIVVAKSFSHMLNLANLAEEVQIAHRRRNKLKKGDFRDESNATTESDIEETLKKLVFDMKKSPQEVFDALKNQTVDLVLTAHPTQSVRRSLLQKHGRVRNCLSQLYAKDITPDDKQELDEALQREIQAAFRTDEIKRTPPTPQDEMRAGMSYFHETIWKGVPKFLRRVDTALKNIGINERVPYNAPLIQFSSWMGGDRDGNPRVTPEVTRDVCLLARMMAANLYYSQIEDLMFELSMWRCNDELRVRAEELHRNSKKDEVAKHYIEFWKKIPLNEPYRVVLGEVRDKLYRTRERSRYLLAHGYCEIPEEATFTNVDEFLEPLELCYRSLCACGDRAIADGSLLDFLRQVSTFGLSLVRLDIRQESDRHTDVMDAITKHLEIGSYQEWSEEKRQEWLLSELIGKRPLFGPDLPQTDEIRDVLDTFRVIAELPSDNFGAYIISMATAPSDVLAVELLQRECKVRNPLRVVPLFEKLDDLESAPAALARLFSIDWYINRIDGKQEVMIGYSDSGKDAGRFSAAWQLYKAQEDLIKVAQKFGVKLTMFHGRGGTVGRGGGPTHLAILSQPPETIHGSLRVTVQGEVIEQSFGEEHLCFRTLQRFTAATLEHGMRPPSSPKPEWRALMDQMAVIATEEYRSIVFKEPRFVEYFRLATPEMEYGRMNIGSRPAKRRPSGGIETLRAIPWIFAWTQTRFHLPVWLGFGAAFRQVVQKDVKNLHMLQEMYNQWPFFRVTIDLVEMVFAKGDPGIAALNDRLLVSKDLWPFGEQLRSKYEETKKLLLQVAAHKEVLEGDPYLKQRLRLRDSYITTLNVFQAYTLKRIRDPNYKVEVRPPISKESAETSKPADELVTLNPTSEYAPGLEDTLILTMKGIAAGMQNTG

T1 sequence (P12880 whole entry): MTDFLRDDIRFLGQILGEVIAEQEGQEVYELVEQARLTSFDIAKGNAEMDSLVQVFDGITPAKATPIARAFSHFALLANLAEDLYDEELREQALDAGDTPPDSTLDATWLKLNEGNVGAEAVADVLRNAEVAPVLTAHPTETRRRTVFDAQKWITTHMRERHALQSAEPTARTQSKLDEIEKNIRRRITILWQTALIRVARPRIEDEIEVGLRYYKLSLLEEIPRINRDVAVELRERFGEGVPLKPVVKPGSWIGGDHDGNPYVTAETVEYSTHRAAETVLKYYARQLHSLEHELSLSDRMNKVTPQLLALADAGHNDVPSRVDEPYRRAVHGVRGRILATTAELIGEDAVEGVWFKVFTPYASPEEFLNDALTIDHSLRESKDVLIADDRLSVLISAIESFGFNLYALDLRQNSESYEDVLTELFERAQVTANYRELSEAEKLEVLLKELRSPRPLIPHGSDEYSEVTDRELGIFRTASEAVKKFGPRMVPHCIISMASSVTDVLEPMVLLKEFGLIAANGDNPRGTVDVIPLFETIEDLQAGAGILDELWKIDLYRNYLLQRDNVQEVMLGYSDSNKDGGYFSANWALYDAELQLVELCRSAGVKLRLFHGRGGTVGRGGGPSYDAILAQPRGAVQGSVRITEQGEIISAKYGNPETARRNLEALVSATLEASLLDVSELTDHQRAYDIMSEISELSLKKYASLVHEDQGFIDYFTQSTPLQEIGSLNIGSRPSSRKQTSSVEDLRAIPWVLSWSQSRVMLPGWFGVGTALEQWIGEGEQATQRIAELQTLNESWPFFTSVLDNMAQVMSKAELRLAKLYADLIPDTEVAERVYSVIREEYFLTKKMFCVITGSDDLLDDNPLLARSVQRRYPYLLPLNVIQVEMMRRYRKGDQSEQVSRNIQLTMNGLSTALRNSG

CC(=O)SCCNC(=O)CCNC(=O)[C@H](O)C(C)(C)COP(=O)(O)OP(=O)(O)OC[C@H]1O[C@@H](n2cnc3c(N)ncnc32)[C@H](O)[C@@H]1OP(=O)(O)O [Acetyl CoA, acetyl coenzyme A]
PEP Carboxylase Activity −Acetyl CoA ([1]; acetyl CoA omitted): 56% | PEP Carboxylase Activity −Acetyl CoA ([2]; acetyl CoA omitted): 15%

N[C@@H](CC(=O)O)C(=O)O [Aspartate, L-aspartic acid]
PEP Carboxylase Activity +Aspartate (5 mM) ([1]; 5 mM aspartate): 100% | inhibition of PEP carboxylase activity [3]: not substantially inhibited | PEP Carboxylase Activity +Aspartate (5 mM) ([2]; 5 mM aspartate): 17%
